Legend:
[1] = target: recombinant human histamine H4 receptor (Homo sapiens, UniProt Q9H3N8); settings: histamine 100 pM-100 uM, forskolin 3 uM
[2] = test system: croton oil induced topical inflammation in mice; settings: H4 ANTAG #1 10 mg/kg

Sequence of recombinant human histamine H4 receptor (Q9H3N8 whole entry): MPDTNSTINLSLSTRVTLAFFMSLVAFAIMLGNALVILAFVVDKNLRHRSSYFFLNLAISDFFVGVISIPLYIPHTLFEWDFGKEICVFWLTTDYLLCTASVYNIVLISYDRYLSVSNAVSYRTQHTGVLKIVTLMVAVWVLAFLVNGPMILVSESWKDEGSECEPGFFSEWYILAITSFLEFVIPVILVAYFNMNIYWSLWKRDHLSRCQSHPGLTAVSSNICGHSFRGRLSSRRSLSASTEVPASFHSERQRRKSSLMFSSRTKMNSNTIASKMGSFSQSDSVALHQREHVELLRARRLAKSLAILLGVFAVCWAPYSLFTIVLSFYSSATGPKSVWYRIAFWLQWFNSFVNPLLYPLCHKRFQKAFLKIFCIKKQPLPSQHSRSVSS

NCCc1c[nH]cn1 [Histamine]
Activation of the receptor (decrease of cAMP content in response to forskolin) [1]: specifically activated

COc1ccc2c(c1)c(CC(=O)O)c(C)n2C(=O)c1ccc(Cl)cc1 [Indomethacin]
Difference in ear thickness (×0.01 mm), Mean ([2]; s.c. 30 min before and 2, 4 h after croton oil, Indomethacin 30 mg/kg, measured 6 h after croton oil): 10.0 ×0.01 mm | % inhib of ear swelling ([2]; versus vehicle group, Indomethacin 30 mg/kg s.c.): (−40%)
